# According to PubChem BioAssay (NCI):
#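 GI50: concentration for 50% inhibition of growth. The concentration for full growth arrest is given as TGI.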
# Experiments:
# Test in all cases: DTP human tumour cell line panel, 384-well format
# [1] = test system: M14 melanoma
# [2] = test system: SK-MEL-28 melanoma
# [3] = test system: HOP-62 NSCLC
# [4] = test system: BT-549 breast
# [5] = test system: MALME-3M melanoma
# [6] = test system: UACC-62 melanoma
# [7] = test system: SN12C renal
# [8] = test system: HCT-15 colon
# [9] = test system: NCI/ADR-RES ovarian
# [10] = test system: HCT-116 colon
# [11] = test system: NCI-H322M lung
# [12] = test system: SF-539 CNS
# [13] = test system: ACHN renal
# [14] = test system: NCI-H226 lung
# [15] = test system: MCF7 breast
# [16] = test system: OVCAR-5 ovarian
# [17] = test system: CCRF-CEM leukemia
# [18] = test system: U251 glioblastoma
# [19] = test system: A498 renal
# [20] = test system: UACC-257 melanoma
# [21] = test system: OVCAR-8 ovarian
# [22] = test system: SW-620 colon
# [23] = test system: T-47D breast
# [24] = test system: 786-0 renal
# [25] = test system: K-562 leukemia
# [26] = test system: NCI-H23 lung
# [27] = test system: COLO 205 colon
# [28] = test system: PC-3 prostate
# [29] = test system: IGROV1 ovarian
# [30] = test system: HL-60(TB) leukemia
# [31] = test system: DU-145 prostate
# [32] = test system: MOLT-4 leukemia
# [33] = test system: NCI-H460 NSCLC
# [34] = test system: SR leukemia
# [35] = test system: LOX IMVI melanoma
# [36] = test system: SF-268 CNS
# [37] = test system: HT29 colon
# [38] = test system: RXF 393 renal
# [39] = test system: SK-MEL-5 melanoma
# [40] = test system: KM12 colon
# [41] = test system: HCC-2998 colon
# [42] = test system: NCI-H522 lung
# [43] = test system: SF-295 CNS
# [44] = test system: MDA-MB-468 breast
# [45] = test system: MDA-MB-435 melanoma
# [46] = test system: SNB-19 CNS
# [47] = test system: OVCAR-4 ovarian
# [48] = test system: UO-31 renal
# [49] = test system: CAKI-1 renal
# [50] = test system: A549 NSCLC
# [51] = test system: SK-MEL-2 melanoma
# [52] = test system: HOP-92 NSCLC
# [53] = test system: OVCAR-3 ovarian
# [54] = test system: TK-10 renal
# [55] = test system: SK-OV-3 ovarian
# [56] = test system: MDA-MB-231 breast
smiles,measurement,setting,value
CN(c1ccc(C#N)c(Cl)c1)C1CCC(NC(=O)c2ccc(N3CCN(C4CN(c5ccc6c(c5)C(=O)N(C5CCC(=O)NC5=O)C6=O)C4)CC3)cc2)CC1 (configuration not stated),GI50,[1],> 100 µM
same,TGI,[1],> 100 µM
same,GI50,[2],> 100 µM
same,TGI,[2],> 100 µM
same,GI50,[3],> 100 µM
same,TGI,[3],> 100 µM
same,GI50,[4],> 100 µM
same,TGI,[4],> 100 µM
same,GI50,[5],> 100 µM
same,TGI,[5],> 100 µM
same,GI50,[6],> 100 µM
same,TGI,[6],> 100 µM
same,GI50,[7],> 100 µM
same,TGI,[7],> 100 µM
same,GI50,[8],> 100 µM
same,TGI,[8],> 100 µM
same,GI50,[9],> 100 µM
same,TGI,[9],> 100 µM
same,GI50,[10],> 100 µM
same,TGI,[10],> 100 µM
same,GI50,[11],> 100 µM
same,TGI,[11],> 100 µM
same,GI50,[12],> 100 µM
same,TGI,[12],> 100 µM
same,GI50,[13],> 100 µM
same,TGI,[13],> 100 µM
same,GI50,[14],> 100 µM
same,TGI,[14],> 100 µM
same,GI50,[15],> 100 µM
same,TGI,[15],> 100 µM
same,GI50,[16],> 100 µM
same,TGI,[16],> 100 µM
same,GI50,[17],> 100 µM
same,TGI,[17],> 100 µM
same,GI50,[18],> 100 µM
same,TGI,[18],> 100 µM
same,GI50,[19],> 100 µM
same,TGI,[19],> 100 µM
same,GI50,[20],> 100 µM
same,TGI,[20],> 100 µM
same,GI50,[21],> 100 µM
same,TGI,[21],> 100 µM
same,GI50,[22],> 100 µM
same,TGI,[22],> 100 µM
same,GI50,[23],> 100 µM
same,TGI,[23],> 100 µM
same,GI50,[24],> 100 µM
same,TGI,[24],> 100 µM
same,GI50,[25],> 100 µM
same,TGI,[25],> 100 µM
same,GI50,[26],> 100 µM
same,TGI,[26],> 100 µM
same,GI50,[27],> 100 µM
same,TGI,[27],> 100 µM
same,GI50,[28],> 100 µM
same,TGI,[28],> 100 µM
same,GI50,[29],> 100 µM
same,TGI,[29],> 100 µM
same,GI50,[30],> 100 µM
same,TGI,[30],> 100 µM
same,GI50,[31],> 100 µM
same,TGI,[31],> 100 µM
same,GI50,[32],> 100 µM
same,TGI,[32],> 100 µM
same,GI50,[33],> 100 µM
same,TGI,[33],> 100 µM
same,GI50,[34],> 100 µM
same,TGI,[34],> 100 µM
same,GI50,[35],> 100 µM
same,TGI,[35],> 100 µM
same,GI50,[36],> 100 µM
same,TGI,[36],> 100 µM
same,GI50,[37],> 100 µM
same,TGI,[37],> 100 µM
same,GI50,[38],> 100 µM
same,TGI,[38],> 100 µM
same,GI50,[39],> 100 µM
same,TGI,[39],> 100 µM
same,GI50,[40],> 100 µM
same,TGI,[40],> 100 µM
same,GI50,[41],> 100 µM
same,TGI,[41],> 100 µM
same,GI50,[42],> 100 µM
same,TGI,[42],> 100 µM
same,GI50,[43],> 100 µM
same,TGI,[43],> 100 µM
same,GI50,[44],> 100 µM
same,TGI,[44],> 100 µM
same,GI50,[45],> 100 µM
same,TGI,[45],> 100 µM
same,GI50,[46],> 100 µM
same,TGI,[46],> 100 µM
same,GI50,[47],> 100 µM
same,TGI,[47],> 100 µM
same,GI50,[48],> 100 µM
same,TGI,[48],> 100 µM
same,GI50,[49],> 100 µM
same,TGI,[49],> 100 µM
same,GI50,[50],> 100 µM
same,TGI,[50],> 100 µM
same,GI50,[51],> 100 µM
same,TGI,[51],> 100 µM
same,GI50,[52],> 100 µM
same,TGI,[52],> 100 µM
same,GI50,[53],> 100 µM
same,TGI,[53],> 100 µM
same,GI50,[54],> 100 µM
same,TGI,[54],> 100 µM
same,GI50,[55],> 100 µM
same,TGI,[55],> 100 µM
same,GI50,[56],> 100 µM
same,TGI,[56],> 100 µM
